Results published in ChEMBL document CHEMBL1201862, “PubChem BioAssay data set” (2004).
The source made the active and inactive calls.

Columns and labels:
[1] = cytotoxicity in MIN6 insulinoma cells, dose response, cytotoxicity control, cell-based, mouse insulinoma (AID 2122); type: functional;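 also: confirmatory high-throughput counterscreen run to flag cytotoxic compounds; mouse MIN-6 beta cells carrying an insulin promoter eGFP reporter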
[2] = test system: Streptococcus sp. 'group A'; test: growth inhibition of control SK(-) GAS strain, dose response, counter-screen for streptokinase expression inhibitor project, luminescence, kanamycin, BacTiterGlo, confirmation (AID 1900); type: functional, organism-based
BJ [3] = test: cells; type: functional, cell-based; conditions: Homo sapiens
INS1 = test: beta cell apoptosis inhibitors, cytokine rescue, dose response, luminescence, retest (AID 449756); type: functional, cell-based; conditions: Rattus norvegicus;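 also: cell death triggered by IL-1 beta plus TNF-alpha plus IFN-gamma mixture; protective hits raise ATP signal compared with cytokine alone wells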
[4] = biological target: T1, Serine/threonine-protein phosphatase (Homo sapiens, UniProt Q9BPW0); test: Counterscreen for inhibitors of PP1: fluorescence-based biochemical high throughput dose response assay to identify inhibitors of Protein Phosphatase 5 (PP5). [Related pubchem assays: 2034 (Summary (PP5 inhibitors)), 1987 (PP5 inhibitors in singlate), 2235 (PP1 inhibitors in singlate)]
T1 sequence (Q9BPW0 whole entry): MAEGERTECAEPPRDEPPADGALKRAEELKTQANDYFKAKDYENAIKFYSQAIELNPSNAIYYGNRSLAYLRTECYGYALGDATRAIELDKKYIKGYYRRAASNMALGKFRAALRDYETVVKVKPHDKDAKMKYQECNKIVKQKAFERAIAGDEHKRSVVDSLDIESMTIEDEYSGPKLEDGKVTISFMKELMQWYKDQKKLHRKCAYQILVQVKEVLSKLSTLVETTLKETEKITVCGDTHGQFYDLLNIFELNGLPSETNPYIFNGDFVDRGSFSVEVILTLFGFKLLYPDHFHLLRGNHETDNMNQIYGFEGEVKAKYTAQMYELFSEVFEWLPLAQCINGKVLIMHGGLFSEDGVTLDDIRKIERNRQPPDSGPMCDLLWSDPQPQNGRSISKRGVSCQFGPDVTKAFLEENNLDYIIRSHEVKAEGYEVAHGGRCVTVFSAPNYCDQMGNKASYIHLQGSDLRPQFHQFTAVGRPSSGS

[5] = Luminescent dose response cell-based high throughput screening assay for inhibitors of the Janus kinase 2 mutant JAK2V617F. [Related pubchem assays: 1446 (Primary screen.), 1521 (Confirmation assay.), 1486 (Counter screen.)]; type: functional
[6] = biological target: Serine/threonine-protein phosphatase PP1-alpha catalytic subunit (Homo sapiens, UniProt P62136); test: PP1 phosphatase inhibitors, dose response, biochemical, fluorescence (AID 2403);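 also: phosphatase turnover of OMFP into fluorescent 3-O-methylfluorescein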
[7] = insulin promoter down-regulators in MIN6 cells, imaging, high-content screening, mouse beta cells (AID 1628); type: functional
BJ [8] = test: cytotoxicity toward BJ-TERT fibroblasts, dose response, cell-based, RAS-independent, luminescence (AID 1933); type: functional; conditions: Homo sapiens
HEK293 = test: inhibitors of LMP1-driven NF-kB reporter, dose response, cell-based, HEK293, luciferase, cherry-pick (AID 588343); type: functional; conditions: Homo sapiens
[9] = AlphaScreen signal interference compounds, dose response, artefact control for ARNT-TACC3 interaction inhibitor project, biochemical, luminescence, cherry-pick (AID 651705); type: functional;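 also: AlphaScreen bead proximity signal that flags compounds interfering with the detection technology; potency reflects signal decrease which marks the compound as an assay artifact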
Streptococcus = test: Group A Streptococcus viability loss, dose response, counter-screen for streptokinase expression inhibitor project, luminescence, BacTiterGlo (AID 1915); type: functional, organism-based;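 also: potency for reduction of bacterial viability or growth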
BJ [10] = test: cytotoxicity toward BJ-TERT-LT-ST fibroblasts, dose response, cell-based, RAS-independent, luminescence (AID 1935); type: functional; conditions: Homo sapiens;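 also: BJ fibroblasts immortalized with TERT plus LT and ST oncogenes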
[11] = cytotoxicity toward DRD oncogenic fibroblasts, dose response, cell-based, non-viral oncogenic, luminescence (AID 1934); type: functional; conditions: Homo sapiens
[12] = biological target: Melanin-concentrating hormone receptor 1 (Homo sapiens, UniProt Q99705); test: Fluorescence-based counterscreen for antagonists of the G-protein coupled receptor 7 (GPR7): cell-based high throughput dose response assay to identify antagonists of the melanin-concentrating hormone receptor 1 (MCHR1).; type: functional
[13] = biological target: Neuropeptides B/W receptor type 1 (Homo sapiens, UniProt P48145); test: Fluorescence-based dose response cell-based high throughput screening assay to identify antagonists of the G-protein coupled receptor 7 (GPR7). [Related pubchem assays: 1952 (Screening assay (GPR7 antagonists).), 1880 (Summary AID.)]; type: functional
[14] = biological target: T2, Rac GTPase-activating protein 1 (Homo sapiens, UniProt Q9H0H5); test: MgcRacGAP GTPase-activating activity inhibitors, confirmation, biochemical, ADP Hunter fluorescence, primary and confirmatory (AID 624330); type: functional
T2 sequence (Q9H0H5 whole entry): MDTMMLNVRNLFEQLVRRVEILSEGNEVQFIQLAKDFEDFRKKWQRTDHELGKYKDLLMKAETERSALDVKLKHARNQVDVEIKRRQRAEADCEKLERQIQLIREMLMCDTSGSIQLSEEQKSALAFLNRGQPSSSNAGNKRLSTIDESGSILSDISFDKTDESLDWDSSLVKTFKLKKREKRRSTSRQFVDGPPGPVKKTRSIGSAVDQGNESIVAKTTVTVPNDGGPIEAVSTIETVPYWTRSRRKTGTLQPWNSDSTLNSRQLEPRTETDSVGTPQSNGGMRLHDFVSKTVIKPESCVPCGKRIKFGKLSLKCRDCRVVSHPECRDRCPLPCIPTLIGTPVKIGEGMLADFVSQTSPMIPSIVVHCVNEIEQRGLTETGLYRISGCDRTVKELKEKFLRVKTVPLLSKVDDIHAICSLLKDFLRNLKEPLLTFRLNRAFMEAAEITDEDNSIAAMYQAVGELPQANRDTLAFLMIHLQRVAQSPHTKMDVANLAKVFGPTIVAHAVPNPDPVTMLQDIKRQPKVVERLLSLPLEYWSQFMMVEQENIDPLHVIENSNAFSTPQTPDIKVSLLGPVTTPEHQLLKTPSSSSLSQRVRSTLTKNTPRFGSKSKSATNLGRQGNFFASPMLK

Cytochrome P450 2D6 = Cytochrome P450 2D6 (Homo sapiens, UniProt P10635); test: qHTS Assay for Inhibitors and Substrates of Cytochrome P450 2D6. [Related pubchem assays: 410 ]; type: ADME; conditions: read-out: Potency
[15] = biological target: T3, Dual specificity protein phosphatase 6 (Rattus norvegicus, UniProt Q64346); type: functional
T3 sequence (Q64346 whole entry): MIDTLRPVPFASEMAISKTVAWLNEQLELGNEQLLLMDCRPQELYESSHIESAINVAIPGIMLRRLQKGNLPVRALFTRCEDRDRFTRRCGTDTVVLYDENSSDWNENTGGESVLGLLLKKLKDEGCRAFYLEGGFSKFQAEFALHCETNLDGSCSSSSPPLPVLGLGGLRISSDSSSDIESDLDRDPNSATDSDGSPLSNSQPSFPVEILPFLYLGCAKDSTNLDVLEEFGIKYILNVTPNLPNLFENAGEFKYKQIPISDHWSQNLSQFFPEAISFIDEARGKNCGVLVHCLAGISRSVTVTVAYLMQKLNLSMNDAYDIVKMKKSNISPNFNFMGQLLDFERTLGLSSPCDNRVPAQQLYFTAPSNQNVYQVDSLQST

[16] = biological target: T3, Dual specificity protein phosphatase 6
[17] = biological target: Glyceraldehyde-3-phosphate dehydrogenase (Homo sapiens, UniProt P04406)
[18] = biological target: T4, Tyrosine-protein phosphatase non-receptor type 7 (Homo sapiens, UniProt P35236); type: functional
T4 sequence (P35236 whole entry): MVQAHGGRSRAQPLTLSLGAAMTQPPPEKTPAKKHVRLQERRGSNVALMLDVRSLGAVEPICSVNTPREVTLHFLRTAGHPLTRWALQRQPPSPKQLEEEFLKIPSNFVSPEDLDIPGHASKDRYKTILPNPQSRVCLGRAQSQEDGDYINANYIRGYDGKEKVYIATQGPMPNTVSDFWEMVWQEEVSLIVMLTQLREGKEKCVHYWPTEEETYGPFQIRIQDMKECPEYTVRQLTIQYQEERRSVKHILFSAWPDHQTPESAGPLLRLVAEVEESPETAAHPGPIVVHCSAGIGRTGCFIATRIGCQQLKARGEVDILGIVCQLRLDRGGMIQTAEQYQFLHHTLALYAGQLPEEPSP

[19] = biological target: Photoreceptor-specific nuclear receptor (Homo sapiens, UniProt Q9Y5X4); type: functional;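 also: potency for compounds that break the NR2E3 corepressor complex and count as activators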
[20] = biological target: Peroxisome proliferator-activated receptor gamma/Nuclear receptor coactivator 3 (Homo sapiens, UniProt P37231); test: (§1) TR-FRET dose response biochemical High Throughput Screening assay for agonists of the steroid receptor coactivator 3 (SRC-3) recruitment by the peroxisome proliferator-activated receptor gamma (PPAR gamma): non-selective agonists. [Related pubchem assays: 1301 (Confirmation screen.), 1048 (Primary screen.)]; type: functional
[21] = biological target: Peroxisome proliferator-activated receptor gamma/Nuclear receptor coactivator 1 (Homo sapiens, UniProt P37231); test: as §1, with “1 (SRC-1)” for “3 (SRC-3)”, “assays (depositor defined):AID1300, AID1808, AID504735, AID631]” for “assays: 1301 (Confirmation screen.), 1048 (Primary screen.)]”; type: protein assay
[22] = biological target: Peroxisome proliferator-activated receptor gamma/Nuclear receptor corepressor 2 (Homo sapiens, UniProt P37231+Q9Y618); type: functional
[23] = biological target: Peroxisome proliferator-activated receptor gamma/Nuclear receptor coactivator 2 (Homo sapiens, UniProt P37231); test: TR-FRET dose response biochemical High Throughput Screening assay for agonists of the steroid receptor coactivator 2 (SRC-2) recruitment by the peroxisome proliferator-activated receptor gamma (PPAR gamma): non-selective agonists. [Related pubchem assays: 1297, 1032 ]; type: functional
[24] = A cytotoxicity screen of small molecule inhibitors of the PhoP region in Salmonella typhi identified in the primary screen. [Related pubchem assays: 1850, 1864, 1985 ]; type: functional
[25] = biological target: T5, Alkaline phosphatase, tissue-nonspecific isozyme (Homo sapiens, UniProt P05186)
T5 sequence (P05186 whole entry): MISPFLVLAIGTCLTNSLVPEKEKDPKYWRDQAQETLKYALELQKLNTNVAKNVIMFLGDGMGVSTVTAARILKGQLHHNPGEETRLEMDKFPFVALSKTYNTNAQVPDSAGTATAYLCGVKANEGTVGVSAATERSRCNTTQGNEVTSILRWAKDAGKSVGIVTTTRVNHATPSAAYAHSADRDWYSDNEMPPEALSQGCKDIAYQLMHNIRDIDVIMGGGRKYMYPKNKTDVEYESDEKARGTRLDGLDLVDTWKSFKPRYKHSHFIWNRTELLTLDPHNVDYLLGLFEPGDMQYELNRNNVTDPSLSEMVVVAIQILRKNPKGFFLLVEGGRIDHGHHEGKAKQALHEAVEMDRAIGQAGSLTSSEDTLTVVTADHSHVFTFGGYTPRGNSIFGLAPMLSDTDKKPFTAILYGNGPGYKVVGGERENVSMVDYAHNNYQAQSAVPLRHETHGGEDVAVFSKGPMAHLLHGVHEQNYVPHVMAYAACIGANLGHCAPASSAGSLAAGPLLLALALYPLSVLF

Wee1-like protein kinase = Wee1-like protein kinase (Homo sapiens, UniProt P30291); test: Dose Response Cell-based Assay for Inhibitors of Wee1 Degradation. [Related pubchem assays: 1410, 1321 ]; type: functional
[26] = biological target: G2/mitotic-specific cyclin-B1 (Homo sapiens, UniProt P14635); test: Counterscreen assay for inhibitors of Wee1 degradation: dose response cell-based assay to identify inhibitors of cyclin B degradation. [Related pubchem assays: 1410, 1321 ]; type: functional
Streptokinase A = biological target: T6, Streptokinase A (Streptococcus pyogenes serotype M1, UniProt P10520); test: S. pyogenes streptokinase expression inhibitors, potency, dose response, plasminogen activation absorbance, OD405 (AID 1914); type: functional, Streptococcus pyogenes M1 GAS;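 also: secreted streptokinase activity via plasminogen activation per viability signal from cell pellet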
T6 sequence (P10520 whole entry): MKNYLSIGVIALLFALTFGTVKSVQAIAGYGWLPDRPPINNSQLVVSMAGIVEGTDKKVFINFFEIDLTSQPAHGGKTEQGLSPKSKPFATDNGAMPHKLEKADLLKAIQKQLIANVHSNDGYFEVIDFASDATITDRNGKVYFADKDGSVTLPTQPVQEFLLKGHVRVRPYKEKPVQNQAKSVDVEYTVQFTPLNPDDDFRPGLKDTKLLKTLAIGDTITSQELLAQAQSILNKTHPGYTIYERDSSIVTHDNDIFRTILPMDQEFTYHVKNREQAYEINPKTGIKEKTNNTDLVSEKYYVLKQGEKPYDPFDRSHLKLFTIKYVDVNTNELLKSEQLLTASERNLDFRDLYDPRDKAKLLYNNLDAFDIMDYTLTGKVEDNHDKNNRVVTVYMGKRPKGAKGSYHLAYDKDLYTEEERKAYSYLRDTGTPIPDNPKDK

Glyceraldehyde-3-phosphate dehydrogenase, sequence (P04406 whole entry): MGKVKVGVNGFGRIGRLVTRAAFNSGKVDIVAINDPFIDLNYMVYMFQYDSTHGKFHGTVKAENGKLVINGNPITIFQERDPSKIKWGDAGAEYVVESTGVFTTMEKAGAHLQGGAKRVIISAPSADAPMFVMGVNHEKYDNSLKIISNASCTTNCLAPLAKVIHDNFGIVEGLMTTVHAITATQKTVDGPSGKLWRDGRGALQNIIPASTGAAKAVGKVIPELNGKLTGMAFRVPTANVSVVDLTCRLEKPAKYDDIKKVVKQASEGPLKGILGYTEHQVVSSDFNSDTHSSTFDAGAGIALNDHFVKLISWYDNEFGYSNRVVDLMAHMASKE
Serine/threonine-protein phosphatase PP1-alpha catalytic subunit, sequence (P62136 whole entry): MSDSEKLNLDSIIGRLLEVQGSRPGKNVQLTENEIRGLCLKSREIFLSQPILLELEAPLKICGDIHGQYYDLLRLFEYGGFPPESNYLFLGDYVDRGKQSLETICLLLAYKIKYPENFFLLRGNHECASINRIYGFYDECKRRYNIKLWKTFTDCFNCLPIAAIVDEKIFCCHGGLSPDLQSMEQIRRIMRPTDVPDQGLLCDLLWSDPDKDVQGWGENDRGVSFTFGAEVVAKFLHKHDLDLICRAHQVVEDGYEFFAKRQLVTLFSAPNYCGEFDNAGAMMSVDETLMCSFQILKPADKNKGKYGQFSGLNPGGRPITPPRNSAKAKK
Peroxisome proliferator-activated receptor gamma/Nuclear receptor coactivator 2, sequence (P37231 whole entry): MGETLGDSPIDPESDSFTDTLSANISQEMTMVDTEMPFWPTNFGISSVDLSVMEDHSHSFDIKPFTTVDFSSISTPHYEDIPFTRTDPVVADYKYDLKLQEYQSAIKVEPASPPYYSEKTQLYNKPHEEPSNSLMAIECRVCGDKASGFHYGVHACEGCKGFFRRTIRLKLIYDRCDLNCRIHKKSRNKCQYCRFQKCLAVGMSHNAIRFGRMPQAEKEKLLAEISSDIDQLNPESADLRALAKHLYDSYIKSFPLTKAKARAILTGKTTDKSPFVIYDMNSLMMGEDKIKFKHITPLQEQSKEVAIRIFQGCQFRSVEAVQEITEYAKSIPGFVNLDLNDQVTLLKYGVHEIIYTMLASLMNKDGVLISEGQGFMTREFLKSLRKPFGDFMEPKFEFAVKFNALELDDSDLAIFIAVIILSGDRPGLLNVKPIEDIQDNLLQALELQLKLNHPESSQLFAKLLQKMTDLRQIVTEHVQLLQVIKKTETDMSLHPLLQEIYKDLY
Peroxisome proliferator-activated receptor gamma/Nuclear receptor coactivator 2, sequence (Q15596 whole entry, further chain): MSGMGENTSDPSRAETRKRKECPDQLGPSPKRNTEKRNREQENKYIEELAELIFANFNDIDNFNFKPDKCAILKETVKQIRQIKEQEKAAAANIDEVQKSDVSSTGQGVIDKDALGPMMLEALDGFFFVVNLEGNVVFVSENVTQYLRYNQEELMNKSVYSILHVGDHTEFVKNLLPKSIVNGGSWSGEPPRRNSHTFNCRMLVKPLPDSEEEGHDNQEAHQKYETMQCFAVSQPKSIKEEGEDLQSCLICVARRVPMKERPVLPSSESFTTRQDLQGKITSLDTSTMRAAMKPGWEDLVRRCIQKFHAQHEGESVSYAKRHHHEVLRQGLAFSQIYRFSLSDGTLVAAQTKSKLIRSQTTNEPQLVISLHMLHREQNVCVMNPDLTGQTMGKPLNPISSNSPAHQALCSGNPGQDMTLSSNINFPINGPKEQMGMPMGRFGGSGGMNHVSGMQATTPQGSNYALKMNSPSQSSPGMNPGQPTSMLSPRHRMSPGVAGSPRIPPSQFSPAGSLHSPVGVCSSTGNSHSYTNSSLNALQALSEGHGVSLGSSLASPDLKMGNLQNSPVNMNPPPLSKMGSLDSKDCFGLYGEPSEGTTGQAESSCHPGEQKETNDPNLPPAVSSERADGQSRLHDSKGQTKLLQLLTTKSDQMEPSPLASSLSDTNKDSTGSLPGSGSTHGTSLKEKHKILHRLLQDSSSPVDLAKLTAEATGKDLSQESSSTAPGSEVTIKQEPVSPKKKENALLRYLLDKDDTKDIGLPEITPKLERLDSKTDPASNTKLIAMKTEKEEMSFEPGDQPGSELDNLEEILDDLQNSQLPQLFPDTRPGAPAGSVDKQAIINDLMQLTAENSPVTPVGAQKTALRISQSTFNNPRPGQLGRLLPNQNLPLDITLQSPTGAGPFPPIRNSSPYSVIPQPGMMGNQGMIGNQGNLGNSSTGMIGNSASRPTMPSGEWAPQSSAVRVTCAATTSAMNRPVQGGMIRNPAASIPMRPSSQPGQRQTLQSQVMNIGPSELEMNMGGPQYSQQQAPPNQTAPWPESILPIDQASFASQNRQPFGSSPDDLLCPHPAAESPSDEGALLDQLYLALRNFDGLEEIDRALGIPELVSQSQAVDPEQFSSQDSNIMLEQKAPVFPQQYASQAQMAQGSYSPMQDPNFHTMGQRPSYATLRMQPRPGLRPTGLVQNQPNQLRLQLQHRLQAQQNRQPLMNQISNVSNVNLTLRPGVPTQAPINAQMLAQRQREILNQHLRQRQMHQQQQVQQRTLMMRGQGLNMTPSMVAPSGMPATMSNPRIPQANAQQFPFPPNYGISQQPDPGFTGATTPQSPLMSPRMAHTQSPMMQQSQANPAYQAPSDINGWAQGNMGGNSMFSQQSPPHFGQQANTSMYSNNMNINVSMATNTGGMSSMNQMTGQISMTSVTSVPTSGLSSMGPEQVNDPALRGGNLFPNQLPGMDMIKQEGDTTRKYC
Peroxisome proliferator-activated receptor gamma/Nuclear receptor coactivator 3, sequence (P37231 whole entry): as the sequence (P37231 whole entry) above
Peroxisome proliferator-activated receptor gamma/Nuclear receptor coactivator 3, sequence (Q9Y6Q9 whole entry, further chain): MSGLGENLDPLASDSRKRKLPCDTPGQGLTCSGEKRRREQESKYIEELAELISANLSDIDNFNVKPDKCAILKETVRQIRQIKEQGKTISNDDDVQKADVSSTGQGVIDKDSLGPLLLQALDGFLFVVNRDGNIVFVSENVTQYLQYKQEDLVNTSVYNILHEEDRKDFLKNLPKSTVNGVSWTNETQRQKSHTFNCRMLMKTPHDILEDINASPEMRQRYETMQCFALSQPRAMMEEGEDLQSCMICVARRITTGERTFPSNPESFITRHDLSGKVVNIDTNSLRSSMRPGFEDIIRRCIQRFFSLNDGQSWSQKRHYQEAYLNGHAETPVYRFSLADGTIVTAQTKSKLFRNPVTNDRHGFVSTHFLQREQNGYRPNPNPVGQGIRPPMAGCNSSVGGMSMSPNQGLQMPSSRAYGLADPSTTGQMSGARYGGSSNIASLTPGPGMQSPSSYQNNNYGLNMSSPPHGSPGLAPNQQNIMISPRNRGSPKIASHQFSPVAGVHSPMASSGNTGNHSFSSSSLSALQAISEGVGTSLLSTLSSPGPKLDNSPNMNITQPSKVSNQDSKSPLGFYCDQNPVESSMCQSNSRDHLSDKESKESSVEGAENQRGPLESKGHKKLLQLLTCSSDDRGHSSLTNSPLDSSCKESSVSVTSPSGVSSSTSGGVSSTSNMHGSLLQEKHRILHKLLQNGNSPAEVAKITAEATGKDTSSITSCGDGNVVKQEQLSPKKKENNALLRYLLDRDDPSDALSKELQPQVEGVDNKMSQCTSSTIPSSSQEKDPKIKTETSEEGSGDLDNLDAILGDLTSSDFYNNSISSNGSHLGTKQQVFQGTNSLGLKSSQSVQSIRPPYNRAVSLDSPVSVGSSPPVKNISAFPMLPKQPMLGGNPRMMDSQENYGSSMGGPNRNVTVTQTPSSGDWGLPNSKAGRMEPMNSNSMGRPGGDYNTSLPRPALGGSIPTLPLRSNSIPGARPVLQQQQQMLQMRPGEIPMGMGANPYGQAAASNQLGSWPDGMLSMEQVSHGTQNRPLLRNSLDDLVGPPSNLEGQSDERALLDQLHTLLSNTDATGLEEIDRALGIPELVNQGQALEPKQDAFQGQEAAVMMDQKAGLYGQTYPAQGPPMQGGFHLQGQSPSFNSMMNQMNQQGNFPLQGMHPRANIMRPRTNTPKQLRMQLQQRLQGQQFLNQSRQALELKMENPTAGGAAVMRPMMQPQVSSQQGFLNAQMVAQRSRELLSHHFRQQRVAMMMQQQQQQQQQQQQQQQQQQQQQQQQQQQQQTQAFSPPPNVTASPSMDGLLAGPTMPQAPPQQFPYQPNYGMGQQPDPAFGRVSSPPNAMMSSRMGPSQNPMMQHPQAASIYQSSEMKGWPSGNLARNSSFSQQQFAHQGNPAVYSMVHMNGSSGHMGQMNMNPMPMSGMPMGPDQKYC
G2/mitotic-specific cyclin-B1, sequence (P14635 whole entry): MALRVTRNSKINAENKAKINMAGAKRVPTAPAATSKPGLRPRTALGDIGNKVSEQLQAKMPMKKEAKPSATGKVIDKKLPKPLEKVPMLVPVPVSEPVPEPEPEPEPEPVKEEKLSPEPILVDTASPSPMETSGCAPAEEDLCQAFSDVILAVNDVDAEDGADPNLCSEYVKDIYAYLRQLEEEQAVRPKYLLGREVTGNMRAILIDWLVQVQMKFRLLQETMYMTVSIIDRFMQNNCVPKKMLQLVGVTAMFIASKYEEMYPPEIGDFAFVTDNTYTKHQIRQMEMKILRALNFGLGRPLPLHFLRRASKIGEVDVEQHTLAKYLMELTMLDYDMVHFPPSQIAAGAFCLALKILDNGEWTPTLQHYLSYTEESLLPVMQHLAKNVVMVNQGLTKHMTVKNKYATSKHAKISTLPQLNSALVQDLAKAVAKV

Compound: c1ccc(CCNc2nc(-c3ccccn3)nc3ccccc23)cc1
- IC50 [1]: 1.21 µM (active)
- EC50 [2]: 0.916 µM (active)
- EC50 (BJ [3]): 28.9 µM (active)
- AC50 (INS1): 1.63 µM (active)
- IC50 [4]: 49.3 µM (not active)
- IC50 [5]: 1.77 µM (active)
- IC50 [6]: 6.27 µM (active)
- IC50 [7]: 1.96 µM (active)
- EC50 (BJ [8]): 3.18 µM (active)
- AC50 (HEK293): 1.24 µM (active)
- AC50 [9]: 125 µM (active)
- EC50 (Streptococcus): 2.33 µM (active)
- EC50 (BJ [10]): 51.1 µM (inconclusive)
- EC50 [11]: 15.9 µM (inconclusive)

Compound: CCOc1ccccc1NC(=O)C(NCC1(N2CCCCC2)CCCCC1)c1ccccc1 (stereo not drawn)
- IC50 [12]: > 14.6 µM (not active)
- IC50 [13]: > 14.6 µM (not active)
- IC50 [14]: 139 µM (active)

Compound: COc1cccc2oc(-c3ccc(O)cc3)cc(=O)c12
- AC50 (Cytochrome P450 2D6): 15.8 µM (inconclusive)

Compound: Cc1cc(NC(=O)c2cccs2)no1
- IC50 [15]: > 100 µM (inactive)
- IC50 [16]: > 100 µM (inactive)
- IC50 [17]: 50.1 µM (active)
- IC50 [18]: > 100 µM (not active)

Compound: CCN(CC)CCCN1C(=O)C(O)=C(C(=O)c2cc3ccccc3o2)C1c1ccccn1 (stereo not drawn)
- IC50 [19]: > 39.8 µM (not active)
- EC50 [20]: > 79.4 µM (not active)
- EC50 [21]: > 79.4 µM (inactive)
- IC50 [22]: 4.13 µM (active)
- EC50 [23]: 35.7 µM (not active)

Compound: Cc1ccn2cc(C(=O)Nc3nnc(C)s3)nc2c1
- EC50 [24]: > 50 µM (active)
- EC50 [25]: > 100 µM (not active)

Compound: O=C(Nc1ccc(Cl)c(Cl)c1)Nc1nccs1
- EC50 [2]: 8.23 µM (active)
- EC50 (BJ [3]): 46.2 µM (active)
- EC50 (Wee1-like protein kinase): > 49.7 µM (not active)
- EC50 [26]: > 49.7 µM (not active)
- EC50 (BJ [8]): 3.87 µM (active)
- EC50 (Streptokinase A): > 150 µM (not active)
- EC50 (Streptococcus): 15.4 µM (active)
- EC50 (BJ [10]): 3.25 µM (inconclusive)
- EC50 [11]: 3.33 µM (active)
